Data from patent US12091426B2, “Bifunctional degraders of hematopoietic progenitor kinase and therapeutic uses thereof” (Nurix Therapeutics, Inc., priority 2021, dated 2024).

Molecular target: T1, HPK1 (Homo sapiens, UniProt Q92918)
T1 construct: A HiBiT tag was introduced by CRISPR on the N terminus of HPK1 in Jurkat cells; host or cells: Jurkat cells (ATCC TIB-152), monoclonal line with CRISPR knock-in of HiBiT at the endogenous HPK1 locus
Assay: HPK1 Cellular HiBit Degradation Assay
Format: cell-based
Conditions: HiBiT HPK1 Jurkat cells, 24 hrs; for DC50: concentration at which 50% of HPK1 was remaining, read-out: DC50 Category; for Dmax: Jurkat, maximum degradation vs DMSO vehicle control, read-out: Dmax Category
Method in brief: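 Jurkat cells with CRISPR knock-in N-terminal HiBiT-HPK1 were treated with CTMs (11-point, 3.16-fold, 10 uM to 0.1 nM final) for 24 hrs at 37° C. HiBiT lytic luminescence, with parental Jurkat as background and DMSO as 100%, gave % HPK1 remaining; four-parameter fit yielded DC50 and Dmax (100 minus lowest % remaining).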

T1 sequence (Q92918 whole entry): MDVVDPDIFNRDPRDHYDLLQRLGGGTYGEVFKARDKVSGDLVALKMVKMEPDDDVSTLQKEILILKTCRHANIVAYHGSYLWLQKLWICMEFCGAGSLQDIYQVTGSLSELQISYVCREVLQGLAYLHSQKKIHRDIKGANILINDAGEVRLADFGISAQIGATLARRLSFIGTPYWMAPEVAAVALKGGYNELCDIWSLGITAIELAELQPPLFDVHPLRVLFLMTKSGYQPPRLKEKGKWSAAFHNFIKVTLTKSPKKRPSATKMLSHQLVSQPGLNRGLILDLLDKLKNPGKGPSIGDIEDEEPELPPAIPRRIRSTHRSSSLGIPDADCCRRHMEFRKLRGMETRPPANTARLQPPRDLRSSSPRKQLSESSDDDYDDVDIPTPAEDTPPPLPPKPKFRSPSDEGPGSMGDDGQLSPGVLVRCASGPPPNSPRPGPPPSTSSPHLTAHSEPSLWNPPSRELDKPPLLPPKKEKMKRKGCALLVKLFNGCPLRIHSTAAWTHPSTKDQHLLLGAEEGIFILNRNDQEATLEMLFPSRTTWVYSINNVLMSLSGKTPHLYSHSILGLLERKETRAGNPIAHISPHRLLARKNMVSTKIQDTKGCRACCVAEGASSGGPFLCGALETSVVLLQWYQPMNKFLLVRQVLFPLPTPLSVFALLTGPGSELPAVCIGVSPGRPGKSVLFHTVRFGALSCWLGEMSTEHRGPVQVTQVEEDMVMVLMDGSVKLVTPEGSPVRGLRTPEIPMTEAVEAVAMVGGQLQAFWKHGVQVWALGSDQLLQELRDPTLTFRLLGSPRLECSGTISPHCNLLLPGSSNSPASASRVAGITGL

DC50 | Dmax | Structure (SMILES)
500 to 1000 nM | 50 to 70% | CC(C)n1cnc2cc(-c3ccc4c(c3)N([C@H]3C[C@@H](N5CCCCC5)C3)C(=O)C43CCN(C(=O)C4(C)CCN(CC5CCN(c6ccc(C7CCC(=O)NC7=O)cn6)CC5)CC4)CC3)nc(NC3CC3)c21 (mixture of isomers) [Example 225, (3RS)-3-[6-(4-{[4-({6-[4-(cyclopropylamino)-3-(propan-2-yl)-3H-imidazo[4,5-c]pyridin-6-yl]-2-oxo-1-[(1S,3S)-3-(piperidin-1-yl)cyclobutyl]-1,2-dihydrospiro[indole-3,4′-piperidin]-1′-yl}carbonyl)-4-methylpiperidin-1-yl]methyl}piperidin-1-yl)pyridin-3-yl]piperidine-2,6-dione]
100 to 500 nM | 70 to 85% | CC(C)n1cnc2cc(-c3ccc4c(c3)N([C@H]3C[C@@H](N5CCCCC5)C3)C(=O)C43CCN(C(=O)[C@]4(C)CCN(C(=O)C5CCN(c6ccc(C7CCC(=O)NC7=O)c(F)c6)CC5)C4)CC3)nc(NC3CC3)c21 (mixture of isomers) [Example 185, (3RS)-3-(4-{4-[(3R)-3-({6-[4-(cyclopropylamino)-3-(propan-2-yl)-3H-imidazo[4,5-c]pyridin-6-yl]-2-oxo-1-[(1S,3S)-3-(piperidin-1-yl)cyclobutyl]-1,2-dihydrospiro[indole-3,4′-piperidin]-1′-yl}carbonyl)-3-methylpyrrolidine-1-carbonyl]piperidin-1-yl}-2-fluorophenyl)piperidine-2,6-dione]
< 100 nM | > 85% | CC(C)n1cnc2cc(-c3ccc4c(c3)N([C@H]3C[C@@H](N5CCCCC5)C3)C(=O)C43CCN(C(=O)C4(CF)CCN(C(=O)C5CCN(c6ccc(C7CCC(=O)NC7=O)cn6)CC5)CC4)CC3)nc(NC3CC3)c21 (mixture of isomers) [Example 278]
< 100 nM | 70 to 85% | CC(C)n1cnc2cc(-c3ccc4c(c3)N([C@H]3C[C@@H](N5CCCCC5)C3)C(=O)C43CCN(C(=O)C4(C)CCN(C(=O)C5CCN(c6ccc(C7CCC(=O)NC7=O)cc6)CC5)CC4)CC3)nc(NC3CCOCC3)c21 (mixture of isomers) [Example 196, (3RS)-3-[4-(4-{4-methyl-4-[(6-{4-[(oxan-4-yl)amino]-3-(propan-2-yl)-3H-imidazo[4,5-c]pyridin-6-yl}-2-oxo-1-[(1S,3S)-3-(piperidin-1-yl)cyclobutyl]-1,2-dihydrospiro[indole-3,4′-piperidin]-1′-yl)carbonyl]piperidine-1-carbonyl}piperidin-1-yl)phenyl]piperidine-2,6-dione]
< 100 nM | 70 to 85% | CC(C)n1cnc2cc(-c3ccc4c(c3)N([C@H]3C[C@@H](N5CCCCC5)C3)C(=O)C43CCN(C(=O)C4(C)CCN(C(=O)C5CCN(c6ccc(C7CCC(=O)NC7=O)cn6)CC5)CC4)CC3)nc(NC3CCOCC3)c21 (mixture of isomers) [Example 214, (3RS)-3-[6-(4-{4-methyl-4-[(6-{4-[(oxan-4-yl)amino]-3-(propan-2-yl)-3H-imidazo[4,5-c]pyridin-6-yl}-2-oxo-1-[(1S,3S)-3-(piperidin-1-yl)cyclobutyl]-1,2-dihydrospiro[indole-3,4′-piperidin]-1′-yl)carbonyl]piperidine-1-carbonyl}piperidin-1-yl)pyridin-3-yl]piperidine-2,6-dione]

Second part, the compound before the results:

Structure (SMILES) | DC50 | Dmax
CC(C)n1cnc2cc(-c3ccc4c(c3)N([C@H]3C[C@@H](N5CCCCC5)C3)C(=O)C43CCN(C(=O)[C@@H]4CCN(C(=O)[C@H]5CC[C@H](Nc6cccc7c6C(=O)N(C6CCC(=O)NC6=O)C7=O)CC5)C4)CC3)nc(Nc3ccncc3F)c21 (mixture of isomers) [Example 11, 2-[(3RS)-2,6-dioxopiperidin-3-yl]-4-{[(1R,4R)-4-[(3R)-3-[(6-{4-[(3-fluoropyridin-4-yl)amino]-3-(propan-2-yl)-3H-imidazo[4,5-c]pyridin-6-yl}-2-oxo-1-[(1S,3S)-3-(piperidin-1-yl)cyclobutyl]-1,2-dihydrospiro[indole-3,4′-piperidin]-1′-yl)carbonyl]pyrrolidine-1-carbonyl]cyclohexyl]amino}-2,3-dihydro-1H-isoindole-1,3-dione] | 100 to 500 nM | 50 to 70%
CC(C)n1cnc2cc(-c3ccc4c(c3)N([C@H]3C[C@@H](N5CCCCC5)C3)C(=O)C43CCN(C(=O)C4(C)CCN(C(=O)[C@H]5CC[C@H](Oc6ccc(N7CCC(=O)NC7=O)cn6)CC5)CC4)CC3)nc(Nc3ccncc3F)c21 [Example 109, 1-(6-{[(1R,4R)-4-{4-[(6-{4-[(3-Fluoropyridin-4-yl)amino]-3-(propan-2-yl)-3H-imidazo[4,5-c]pyridin-6-yl}-2-oxo-1-[(1S,3S)-3-(piperidin-1-yl)cyclobutyl]-1,2-dihydrospiro[indole-3,4′-piperidin]-1′-yl)carbonyl]-4-methylpiperidine-1-carbonyl}cyclohexyl]oxy}pyridin-3-yl)-1,3-diazinane-2,4-dione] | 100 to 500 nM | 50 to 70%
CC(C)n1cnc2cc(-c3ccc4c(c3)N([C@H]3C[C@@H](N5CCCCC5)C3)C(=O)C43CCN(C(=O)C4(C#N)CCN(C(=O)C5CCN(c6ccc(C7CCC(=O)NC7=O)cc6)CC5)CC4)CC3)nc(NC3CC3)c21 (mixture of isomers) [Example 258, 4-({6-[4-(cyclopropylamino)-3-(propan-2-yl)-3H-imidazo[4,5-c]pyridin-6-yl]-2-oxo-1-[(1S,3S)-3-(piperidin-1-yl)cyclobutyl]-1,2-dihydrospiro[indole-3,4′-piperidin]-1′-yl}carbonyl)-1-(1-{4-[(3RS)-2,6-dioxopiperidin-3-yl]phenyl}piperidine-4-carbonyl)piperidine-4-carbonitrile] | < 100 nM | 70 to 85%
CC(C)n1cnc2cc(-c3ccc4c(c3)N([C@H]3C[C@@H](N5C6CCC5COC6)C3)C(=O)C43CCN(C(=O)C4(C)CCN(C(=O)CC5CCN(c6ccc(C7CCC(=O)NC7=O)cc6)CC5)CC4)CC3)nc(NC3CC3)c21 (mixture of isomers) [Example 202, (3RS)-3-[4-(4-{2-[4-({6-[4-(cyclopropylamino)-3-(propan-2-yl)-3H-imidazo[4,5-c]pyridin-6-yl]-2-oxo-1-[(1S,3S)-3-{3-oxa-8-azabicyclo[3.2.1]octan-8-yl}cyclobutyl]-1,2-dihydrospiro[indole-3,4′-piperidin]-1′-yl}carbonyl)-4-methylpiperidin-1-yl]-2-oxoethyl}piperidin-1-yl)phenyl]piperidine-2,6-dione] | 500 to 1000 nM | 50 to 70%
CC(C)n1cnc2cc(-c3ccc4c(c3)N([C@H]3C[C@@H](N5CCCCC5)C3)C(=O)C43CCN(C(=O)c4ccc(C(=O)N5CCN(c6ccc(C7CCC(=O)NC7=O)cn6)C[C@H]5C)cc4)CC3)nc(Nc3ccccc3F)c21 (mixture of isomers) [Example 100, (3RS)-3-{6-[(3R)-4-{4-[(6-{4-[(2-fluorophenyl)amino]-3-(propan-2-yl)-3H-imidazo[4,5-c]pyridin-6-yl}-2-oxo-1-[(1S,3S)-3-(piperidin-1-yl)cyclobutyl]-1,2-dihydrospiro[indole-3,4′-piperidin]-1′-yl)carbonyl]benzoyl}-3-methylpiperazin-1-yl]pyridin-3-yl}piperidine-2,6-dione] | 100 to 500 nM | 70 to 85%
